Among the data in US6515140B2, “Fused pyrrolecarboxamides; a new class of GABA brain receptor ligands” (Neurogen Corporation, priority 1996, dated 2003) are Ki and melting point values, retold here.

One data set deals with GABAa receptor. In words: GABAa receptor binding assay (3H-RO15-1788 displacement). Particulars: rat cortical tissue homogenate; radioligand 0.5 nM 3H-RO15-1788 [3H-Flumazenil]; 30 min at 4° C. As for the experimental part: The pharmaceutical utility of compounds of this invention are indicated by the following assay for GABAa receptor binding activity.
Assays are carried out as described in Thomas and Tallman (J. Bio. Chem. 156:9838-9842 , J. Neurosci. 3:433-440, 1983). Rat cortical tissue is dissected and homogenized in 25 volumes (w/v) of 0.05 M Tris HCl buffer (pH 7.4 at 4° C.). The tissue homogenate is centrifuged in the cold (4°) at 20,000×g for 20′. The supernatant is decanted and the pellet is rehomogenized in the same volume of buffer and again centrifuged at 20,000×g. The supernatant is decanted and the pellet is frozen at −20° C. overnight. The pellet is then thawed and rehomogenized in 25 volume (original wt/vol) of buffer and the procedure is carried out twice. The pellet is finally resuspended in 50 volumes (w/vol of 0.05 M Tris HCl buffer (pH 7.4 at […]).
Incubations contain […] of tissue homogenate, […] of radioligand 0.5 nM (^3H-RO15-1788 [^3H-Flumazenil] specific activity 80 Ci/mmol), drug or blocker and buffer to a total volume of […]. Incubations are carried for 30 min at 4° C. then are rapidly filtered through GFB filters to separate free and bound ligand. Filters are washed twice with fresh 0.05 M Tris HCl buffer (pH 7.4 at 4° C.) and counted in a liquid scintillation counter. […] diazepam is added to some tubes to determine nonspecific binding. Data are collected in triplicate determinations, averaged and % inhibition of total specific binding is calculated. Total Specific Binding=Total−Nonspecific. In some cases, the amounts of unlabeled drugs is varied and total displacement curves of binding are carried out.

For orientation: Ki means the dissociation constant of the complex between target and ligand, obtained from inhibition or displacement. As usually defined, the melting point is the temperature, or range, at which the solid turns liquid. The molecule `CNCc1cccc(NC(=O)c2c[nH]c3c2C(=O)CCC3)c1` [Compound 1, N-[3-(Methylaminomethyl)phenyl]-4-oxo-4,5,6,7-tetrahydro-1H-indole-3-carboxamide] showed a melting point of 130 to 132 °C. Further, the affinity at GABAa receptor corresponds to a Ki of 90 nM.
Take `COCCOc1ccc(NC(=O)c2c[nH]c3c2C(=O)CCC3)cc1` [Compound 2, N-[4-(Methoxyethoxy)phenyl]-4-oxo-4,5,6,7-tetrahydro-1H-indole-3-carboxamide]: the affinity on GABAa receptor corresponds to a Ki of 29 nM.
Turning to `CNCc1ccc(NC(=O)c2c[nH]c3c2C(=O)CCC3)c(F)c1` [Compound 3, N-[2-Fluoro-4-(methylaminomethyl)phenyl]-4-oxo-4,5,6,7-tetrahydro-1H-indole-3-carboxamide], the melting point fell in the range of 186 to 188 °C. At GABAa receptor, this molecule displayed a Ki of 49 nM.
Molecule `CNCCc1ccc(NC(=O)c2c[nH]c3c2C(=O)CCC3)cc1` [Compound 4, N-[4-(2-Methylaminoethyl)phenyl]-4-oxo-4,5,6,7-tetrahydro-1H-indole-3-carboxamide] registered a melting point of 197 to 200 °C. This molecule had a Ki at GABAa receptor of 0.24 nM.
The corresponding values for `O=C(Nc1ccc(CNC2CC2)cc1)c1c[nH]c2c1C(=O)CCC2` [Compound 5, N-[4-(Cyclopropylaminomethyl)phenyl]-4-oxo-4,5,6,7-tetrahydro-1H-indole-3-carboxamide] are 171 to 173 °C and 9 nM.
Take `NCc1ccc(NC(=O)c2c[nH]c3c2C(=O)CCC3)cc1` [Compound 6, N-[4-(Aminomethyl)phenyl]-4-oxo-4,5,6,7-tetrahydro-1H-indole-3-carboxamide]: the melting point is > 200 °C (dec.). For the same molecule, the Ki on GABAa receptor is 9 nM.
The corresponding values for `CNCc1ccc(NC(=O)c2c[nH]c3c2C(=O)CCCC3)cc1` [Compound 7] are 173 to 175 °C and 30 nM.
The corresponding values for `CC1(C)CC(=O)c2c(C(=O)Nc3cccc(CO)c3)c[nH]c2C1` [Compound 8, N-[3-(Hydroxymethyl)phenyl]-4-oxo-6,6-dimethyl-4,5,6,7-tetrahydro-1H-indole-3-carboxamide] are 233 to 235 °C and 27 nM.
Taken in the same sequence, the figures for `CC1CC(=O)c2c(C(=O)Nc3ccc(OCCO)cc3)c[nH]c2C1` (stereo not shown) [Compound 9, N-[4-(2-Hydroxyethoxy)phenyl]-4-oxo-6-methyl-4,5,6,7-tetrahydro-1H-indole-3-carboxamide] were 245 to 247 °C and 1.3 nM.
Take `O=C(Nc1ccc2c(c1)OCO2)c1c[nH]c2c1C(=O)CCC2` [Compound 10, N-(1,3-Benzodioxol-5-yl)-4-oxo-4,5,6,7-tetrahydro-1H-indole-3-carboxamide]: the melting point fell in the range of 248 to 249 °C. This molecule had a Ki at GABAa receptor of 37 nM.
In turn, `O=C(Nc1ccc2c(c1)OCCO2)c1c[nH]c2c1C(=O)CCC2` [Compound 11, N-(2,3-Dihydro-1,4-benzodioxin-6-yl)-4-oxo-4,5,6,7-tetrahydro-1H-indole-3-carboxamide] showed a melting point of 254 to 256 °C. At GABAa receptor, this molecule gave a Ki of 7 nM.
The corresponding values for `O=C(Nc1ccc2c(c1)OCCO2)c1c[nH]c2c1C(=O)CCCC2` [Compound 12, N-(2,3-Dihydro-1,4-benzodioxin-6-yl)-4-oxo-1,4,5,6,7,8-hexahydro-cyclohepta[b]pyrrole-3-carboxamide] are 222 to 223 °C and 5 nM.
On to `O=C(Nc1ccc(OCCO)nc1)c1c[nH]c2c1C(=O)CCC2` [Compound 14], for which affinity at GABAa receptor was put at a Ki of 3 nM.
`O=C(Nc1ccc(OCCNC2C3CC4CC(C3)CC2C4)cc1)c1c[nH]c2c1C(=O)CCC2` (stereo not shown) [Compound 83, N-[4-(2-adamant-2-ylaminoethoxy)phenyl]-4-oxo-4,5,6,7-tetrahydro-1H-indole-3-carboxamide] registered a melting point of 144 to 149 °C.
For the molecule `O=C(Nc1ccc(OC[C@@H]2CCCN2)cc1)c1c[nH]c2c1C(=O)CCC2` [Compound 85, N-{4-[(S)-Pyrrolidin-2-ylmethoxy]phenyl}-4-oxo-4,5,6,7-tetrahydro-1H-indole-3-carboxamide], the melting point was 165 to 167 °C.
Same read-out and setting: under `CN(C)CCOc1ccc(NC(=O)c2c[nH]c3c2C(=O)CCC3)cc1` [Compound 88, N-[4-(2-Dimethylaminoethoxy)phenyl]-4-oxo-4,5,6,7-tetrahydro-1H-indole-3-carboxamide] stands 201 °C.
As to `CN(C)CCOc1ccc(NC(=O)c2c[nH]c3c2C(=O)CCC3)cc1F` [Compound 89, N-[3-Fluoro-4-(2-dimethylaminoethoxy)phenyl]-4-oxo-4,5,6,7-tetrahydro-1H-indole-3-carboxamide], the melting point worked out at 203 °C.
Still for that read-out and setting: with `O=C(Nc1ccc(OCCN2CCCC2)cc1)c1c[nH]c2c1C(=O)CCC2` [Compound 90, N-[4-(2-Pyrrolidin-1-ylethoxy)phenyl]-4-oxo-4,5,6,7-tetrahydro-1H-indole-3-carboxamide] the figure was 164 to 168 °C.
On the same count and under the same terms, with `O=C(Nc1ccc(OCCn2ccnc2)cc1)c1c[nH]c2c1C(=O)CCC2` [Compound 91, N-[4-(2-Imidaz-1-ylethoxy)phenyl]-4-oxo-4,5,6,7-tetrahydro-1H-indole-3-carboxamide] the figure was 226 to 230 °C; with `O=C(Nc1ccc(OCCC2CCCCN2)cc1)c1c[nH]c2c1C(=O)CCC2` (stereo not shown) [Compound 94, N-[4-(2-Piperidin-2-ylethoxy)phenyl]-4-oxo-4,5,6,7-tetrahydro-1H-indole-3-carboxamide], 281 to 285 °C.
Same read-out and setting: with `CC(C)(C)NCCOc1ccncc1NC(=O)c1c[nH]c2c1C(=O)CCC2` [Compound 112, N-[4-(2-t-Butylaminoethoxy)pyrid-3-yl]-4-oxo-4,5,6,7-tetrahydro-1H-indole-3-carboxamide] the figure was 274 to 278 °C; with `CN(C)CCOc1ccncc1NC(=O)c1c[nH]c2c1C(=O)CCC2` [Compound 122, N-[4-(2-Dimethylaminoethoxy)pyrid-3-yl]-4-oxo-4,5,6,7-tetrahydro-1H-indole-3-carboxamide], 163 to 166 °C.
`CN(C)CCCOc1ccncc1NC(=O)c1c[nH]c2c1C(=O)CCC2` [Compound 123, N-[4-(3-Dimethylaminopropoxy)pyrid-3-yl]-4-oxo-4,5,6,7-tetrahydro-1H-indole-3-carboxamide] had a melting point of 247 °C.
The same measure, in the same setting: under `O=C(Nc1cnccc1OCCN1CCCC1)c1c[nH]c2c1C(=O)CCC2` [Compound 124, N-[4-(2-Pyrrolidin-1-ylethoxy)pyrid-3-yl]-4-oxo-4,5,6,7-tetrahydro-1H-indole-3-carboxamide] stands 148 to 150 °C; under `CN1CCC(COc2ccncc2NC(=O)c2c[nH]c3c2C(=O)CCC3)C1` (stereo not shown) [Compound 131, N-{4-[(1-Methyl-pyrrolidin-3-yl)methoxy]pyrid-3-yl}-4-oxo-4,5,6,7-tetrahydro-1H-indole-3-carboxamide], 209 to 211 °C; under `O=C(Nc1cccc(OCCCNC23CC4CC(CC(C4)C2)C3)c1)c1c[nH]c2c1C(=O)CCCC2` [Compound 183, N-[3-(3-Adamant-1-ylaminopropoxy)phenyl]4-oxo-1,4,5,6,7,8-hexahydro-cyclohepta[b]pyrrole-3-carboxamide], 175 to 176 °C.
On to `O=C(Nc1cnccc1OCc1cccnc1)c1c[nH]c2c1C(=O)CCCC2` [Compound 194, N-[4-(Pyrid-3-ylmethoxy)pyrid-3-yl]-4-oxo-1,4,5,6,7,8-hexahydro-cyclohepta[b]pyrrole-3-carboxamide], for which the melting point fell in the range of 241 to 243 °C.
On the same count and under the same terms, with `CCOC(=O)COc1ccc(NC(=O)c2c[nH]c3c2C(=O)CCC3)cc1F` [Compound 222, N-[3-Fluoro-4-(2-ethoxy-2-oxoethoxy)phenyl]-4-oxo-4,5,6,7-tetrahydro-1H-indole-3-carboxamide] the figure was 192 to 196 °C; with `O=C(O)COc1ccc(NC(=O)c2c[nH]c3c2C(=O)CCC3)cc1F` [Compound 223, N-[3-Fluoro-4-(2-hydroxy-2-oxoethoxy)phenyl]-4-oxo-4,5,6,7-tetrahydro-1H-indole-3-carboxamide], 246 to 248 °C; with `CCN(CC)C(=O)COc1ccc(NC(=O)c2c[nH]c3c2C(=O)CCC3)cc1F` [Compound 225, N-[3-Fluoro-4-(2-diethylamino-2-oxoethoxy)phenyl]-4-oxo-4,5,6,7-tetrahydro-1H-indole-3-carboxamide], 193 to 196 °C.
Same read-out and setting: under `CCCN(CCC)CCNC(=O)COc1ccc(NC(=O)c2c[nH]c3c2C(=O)CCC3)cc1` [Compound 228, N-[2-(dipropylamino)ethyl]-2-{4-[(4-oxo-(4,5,6,7-tetrahydroindol-3-yl))carbonylamino]phenoxy}acetamide] stands 148 to 150 °C; under `O=C(Nc1ccc(OCC(=O)N2CCOCC2)c(F)c1)c1c[nH]c2c1C(=O)CCC2` [Compound 232, N-[3-fluoro-4-(2-morpholin-4-yl-2-oxoethoxy)phenyl](4-oxo-(4,5,6,7-tetrahydroindol-3-yl))carboxamide], 110 °C.
